Structures can show the parent of a compound that is named as a salt.
molecular target: T1, Human recombinant enteropeptidase (Homo sapiens, UniProt P98073); test: Human enteropeptidase inhibitory activity (Test Example 1); type: biochemical; settings: 3.3 μM test compound; inhibition rate from fluorescence intensity at 2 hours after the start of the reaction
T1 construct: purchased ITSI-Biosciences LLC #REN-260
Summary of the method: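 Recombinant human enteropeptidase in 50 mM Tricine pH 8.0, 0.01% Tween 20, 10 mM CaCl2, with a 5FAM/CPQ2-quenched peptide substrate (2.1 μM solution before mixing). Compound came from 1 mM DMSO stock diluted 100-fold in buffer. Fluorescence (ex 485/em 535 nm) at 2 h gave % inhibition versus no-compound and no-enzyme controls.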

T1 sequence (P98073 whole entry): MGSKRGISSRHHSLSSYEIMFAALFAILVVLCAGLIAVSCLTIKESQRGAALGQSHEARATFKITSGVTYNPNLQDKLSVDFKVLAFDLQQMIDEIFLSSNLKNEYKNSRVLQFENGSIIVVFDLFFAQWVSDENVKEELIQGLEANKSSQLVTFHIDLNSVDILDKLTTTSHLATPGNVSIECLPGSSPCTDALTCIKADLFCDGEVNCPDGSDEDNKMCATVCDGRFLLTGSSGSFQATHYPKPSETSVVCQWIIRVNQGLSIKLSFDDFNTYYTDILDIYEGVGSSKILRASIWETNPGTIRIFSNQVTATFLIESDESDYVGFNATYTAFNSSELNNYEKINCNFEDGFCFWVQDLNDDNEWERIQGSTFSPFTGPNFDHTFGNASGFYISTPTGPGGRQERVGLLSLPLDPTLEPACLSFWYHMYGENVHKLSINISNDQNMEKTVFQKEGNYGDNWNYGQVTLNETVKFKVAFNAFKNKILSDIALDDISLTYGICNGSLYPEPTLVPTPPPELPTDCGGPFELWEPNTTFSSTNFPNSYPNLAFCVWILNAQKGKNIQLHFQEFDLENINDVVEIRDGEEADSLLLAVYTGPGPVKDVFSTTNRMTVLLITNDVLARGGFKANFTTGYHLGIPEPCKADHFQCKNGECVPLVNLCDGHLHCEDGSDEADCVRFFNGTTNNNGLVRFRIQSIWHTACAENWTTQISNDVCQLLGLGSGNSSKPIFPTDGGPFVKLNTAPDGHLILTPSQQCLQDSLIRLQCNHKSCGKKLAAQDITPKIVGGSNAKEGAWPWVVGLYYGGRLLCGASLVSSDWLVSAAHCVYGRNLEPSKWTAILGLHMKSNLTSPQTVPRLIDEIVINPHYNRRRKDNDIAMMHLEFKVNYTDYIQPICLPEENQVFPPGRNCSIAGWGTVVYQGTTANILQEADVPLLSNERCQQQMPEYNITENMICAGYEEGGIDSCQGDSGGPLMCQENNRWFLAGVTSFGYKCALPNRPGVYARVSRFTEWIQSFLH

3.3 μM Inhibition [%] | SMILES
101 | N=C(N)Nc1ccc2c(c1)OCCCOc1cc(CCC(=O)N[C@@H](CC(=O)O)C(=O)O)ccc1OC2=O [Example 51, N-(3-(3-carbamimidamido-15-oxo-7,8-dihydro-6H,15H-dibenzo[b,f][1,4,8]trioxacyclo-undecin-11-yl)propanoyl) aspartic acid]

same assay, conditions: 3.3 μM test compound; inhibition rate from fluorescence intensity at 2 hours after the start of the reaction; read-out: 3.3 μM Inhibition

SMILES | inhibition at 3.3 µM [%]
COc1ccc(C[C@H](NC(=O)c2c(CCC(=O)NC(CC(=O)O)CC(=O)O)ccc3c2OCCCc2cc(NC(=N)N)ccc2C(=O)O3)C(=O)O)cc1 [Example 132, 3-((3-(10-carbamimidamido-4-(((1S)-1-carboxy-2-(4-methoxyphenyl)ethyl)carbamoyl)-13-oxo-6,7,8,13-tetrahydro-dibenzo[b,f] [1,4]dioxecin-3-yl)propanoyl)amino) pentanedioic acid] | 100
N=C(N)Nc1ccc2c(c1)CCCOc1c(cccc1C(=O)N(Cc1ccc(C(=O)O)cc1)[C@@H](CC(=O)O)C(=O)O)OC2=O [Example 143, N-((10-Carbamimidamido-13-oxo-6,7,8,13-tetrahydrodibenzo[b,f][1,4]dioxecin-4-yl)carbonyl)-N-(4-carboxybenzyl)-L-aspartic acid] | 100
COc1ccc(C[C@H](NC(=O)c2c(CCC(=O)N(CC(=O)O)CC(=O)O)ccc3c2OCCCc2cc(NC(=N)N)ccc2C(=O)O3)C(=O)O)cc1 [Example 130, N-((3-(3-(bis(carboxymethyl)amino)-3-oxopropyl)-10-carbamimidamido-13-oxo-6,7,8,13-tetrahydro-dibenzo[b,f] [1,4]dioxecin-4-yl)carbonyl)-O-methyl-L-tyrosine] | 99
COC(=O)[C@H](CS(=O)(=O)O)NC(=O)c1cccc2c1OCCCc1cc(NC(=N)N)ccc1C(=O)O2 [Example 7, 10-carbamimidamido-4-(((2R)-1-methoxy-1-oxo-3-sulfopropan-2-yl)carbamoyl)-13-oxo-6,7,8,13-tetrahydro-dibenzo[b,f] [1,4]dioxecine] | 102
N=C(N)Nc1ccc2c(c1)CCCOc1c(cccc1C(=O)N(CC(=O)O)C(CC(=O)O)CC(=O)O)OC2=O [Example 106, 3-(((10-Carbamimidamido-13-oxo-6,7,8,13-tetrahydrodibenzo[b,f][1,4]dioxecin-4-yl)carbonyl) (carboxymethyl)amino)pentanedioic acid] | 100
N=C(N)Nc1ccc2c(c1)CCCOc1c(cccc1C(=O)NCCC(=O)O)OC2=O [Example 88, N-((10-carbamimidamido-13-oxo-6,7,8,13-tetrahydro-dibenzo[b,f] [1,4]dioxecin-4-yl)carbonyl)-beta-alanine] | 102
N=C(N)Nc1ccc2c(c1)CCCOc1c(cccc1C(=O)N(CC(=O)O)CC(=O)O)OC2=O [Example 14, 2,2′-(((10-carbamimidamido-13-oxo-6,7,8,13-tetrahydro-dibenzo[b,f] [1,4]dioxecin-4-yl)carbonyl)imino) diacetic acid] | 101
C[C@@H](C(=O)O)N(Cc1cccc(C(=O)O)c1)C(=O)c1cccc2c1OCCCc1cc(NC(=N)N)ccc1C(=O)O2 [Example 135, 3-((((10-Carbamimidamido-13-oxo-6,7,8,13-tetrahydrodibenzo[b,f][1,4]dioxecin-4-yl)carbonyl) ((1S)-1-carboxyethyl)amino)methyl)benzoic acid] | 100
COC(=O)CN(C(=O)c1cccc2c1OCCCc1cc(NC(=N)N)ccc1C(=O)O2)[C@@H](CC(=O)O)C(=O)O [Example 139, N-((10-carbamimidamido-13-oxo-6,7,8,13-tetrahydro-dibenzo[b,f] [1,4]dioxecin-4-yl)carbonyl)-N-(2-methoxy-2-oxoethyl)-L-aspartic acid] | 100
N=C(N)Nc1ccc2c(c1)CCCOc1c(cccc1C(=O)N(CC(=O)O)Cc1cc(C(=O)O)cc(C(=O)O)c1)OC2=O [Example 146, 5-((((10-carbamimidamido-13-oxo-6,7,8,13-tetrahydro-dibenzo[b,f] [1,4]dioxecin-4-yl)carbonyl)-(carboxy-methyl)-amino)methyl) isophthalic acid] | 102
N=C(N)Nc1ccc2c(c1)CCCOc1c(cccc1C(=O)N[C@@H](CCC(N)=O)C(=O)O)OC2=O [Example 16, N^~2^~-((10-carbamimidamido-13-oxo-6,7,8,13-tetrahydro-dibenzo[b,f] [1,4]dioxecin-4-yl)carbonyl)-L-glutamine] | 101
N=C(N)Nc1ccc2c(c1)CCCOc1c(ccc(CCC(=O)O)c1C(=O)N(CC(=O)O)CC(=O)O)OC2=O [Example 119, 3-(4-(Bis(carboxymethyl)carbamoyl)-10-carbamimidamido-13-oxo-6,7,8,13-tetrahydrodibenzo[b,f][1,4]dioxecin-3-yl)propanoic acid] | 101
N=C(N)Nc1ccc2c(c1)CCCCc1c(cccc1C(=O)NCCS(=O)(=O)O)OC2=O [Example 33, 2-(((3-carbamimidamido-14-oxo-5,7,8,14-tetrahydro-6H-dibenzo[b,h]oxecin-9-yl)carbonyl)amino) ethanesulfonic acid] | 98
COCCN(C(=O)c1cccc2c1OCCCc1cc(NC(=N)N)ccc1C(=O)O2)[C@@H](CC(=O)O)C(=O)O [Example 109, N-((10-carbamimidamido-13-oxo-6,7,8,13-tetrahydro-dibenzo[b,f] [1,4]dioxecin-4-yl)carbonyl)-N-(2-methoxyethyl)-L-aspartic acid] | 100

Second part, the compound after the results:

inhibition at 3.3 µM [%] | SMILES
100 | N=C(N)c1ccc2c(c1)CCCCc1cc(C(=O)N[C@@H](CC(=O)O)C(=O)O)ccc1C(=O)O2 [Example 69, N-((10-Carbamimidoyl-14-oxo-5,7,8,14-tetrahydro-6H-dibenzo[b,h]oxecin-3-yl)carbonyl)-L-aspartic acid trifluoroacetate]
100 | COc1cc2c(c(C(=O)N[C@@H](CC(=O)O)C(=O)O)c1)CCCCc1cc(NC(=N)N)ccc1C(=O)O2 [Example 67, N-((3-Carbamimidamido-11-methoxy-14-oxo-5,7,8,14-tetrahydro-6H-dibenzo[b,h]oxecin-9-yl)carbonyl)-L-aspartic acid]
101 | N=C(N)Nc1ccc2c(c1)OCCc1cc(CCC(=O)N[C@@H](CC(=O)O)C(=O)O)ccc1OC2=O [Example 50, N-(3-(9-Carbamimidamido-6-oxo-12,13-dihydro-6H-dibenzo[b,f][1,5]dioxonin-2-yl)propanoyl)-L-aspartic acid trifluoroacetate]
45 | N=C(N)Nc1ccc2c(c1)CCCCc1sc(C(=O)N[C@@H](CC(=O)O)C(=O)O)cc1OC2=O [Example 26, N-((9-Carbamimidamido-12-oxo-5,6,7,12-tetrahydro-4H-thieno[3,2-c][2]benzooxecin-2-yl)carbonyl)-L-aspartic acid]
101 | N=C(N)Nc1ccc2c(c1)CCCCc1c(cccc1C(=O)NC(CC(=O)O)CC(=O)O)OC2=O [Example 74, 3-(((3-carbamimidamido-14-oxo-5,7,8,14-tetrahydro-6H-dibenzo[b,h]oxecin-9-yl)carbony)amino)pentanedioic acid]
59 | N=C(N)c1ccc2c(c1)CCc1cc(CCC(=O)N[C@@H](CC(=O)O)C(=O)O)ccc1C(=O)O2 [Example 60, N-(3-(2-carbamimidoyl-6-oxo-11,12-dihydro-6H-dibenzo[b,f]oxocin-9-yl)propanoyl)-L-aspartic acid]
100 | N=C(N)Nc1ccc2c(c1)OCCCCOc1c(CCC(=O)N[C@@H](CC(=O)O)C(=O)O)cccc1OC2=O [Example 42, N-(3-(3-Carbamimidamido-16-oxo-6,7,8,9-tetrahydro-16H-dibenzo[b,f][1,4,8]trioxacyclododecin-11-yl)propanoyl)aspartic acid trifluoroacetate]
72 | N=C(N)c1ccc2c(c1)CCc1c(CCC(=O)N[C@@H](CC(=O)O)C(=O)O)cccc1C(=O)O2 [Example 61, N-(3-(2-Carbamimidoyl-6-oxo-11,12-dihydro-6H-dibenzo[b,f]oxocin-10-yl)propanoyl)-L-aspartic acid trifluoroacetate]
93 | N=C(N)Nc1ccc2c(c1)CCCOc1ccc(CCC(=O)N[C@@H](CC(=O)O)C(=O)O)cc1OC2=O [Example 78, N-(3-(10-carbamimidamido-13-oxo-6,7,8,13-tetrahydro-dibenzo[b,f] [1,4]dioxecin-2-yl)propanoyl) aspartic acid]
100 | N=C(N)Nc1ccc2c(c1)CCCOc1c(ccc(CCC(=O)NC(CC(=O)O)CC(=O)O)c1C(=O)O)OC2=O [Example 131, 3-((3-(10-carbamimidamido-4-carboxy-13-oxo-6,7,8,13-tetrahydro-dibenzo[b,f] [1,4]dioxecin-3-yl)propanoyl)amino) pentanedioic acid]
101 | N=C(N)Nc1ccc2c(c1)OCCCOc1c(CCC(=O)N[C@@H](CC(=O)O)C(=O)O)cccc1OC2=O [Example 43, N-(3-(3-Carbamimidamido-15-oxo-7,8-dihydro-6H, 15H-dibenzo[b,f][1,4,8]trioxacycloundecin-10-yl)propanoyl)aspartic acid trifluoroacetate]
101 | CN(C(=O)CCc1cccc2c1OCCCc1cc(NC(=N)N)ccc1C(=O)O2)[C@@H](CC(=O)O)C(=O)O [Example 102, N-(3-(10-carbamimidamido-13-oxo-6,7,8,13-tetrahydro-dibenzo[b,f] [1,4]dioxecin-4-yl)propanoyl)-N-methyl-L-aspartic acid]
101 | N=C(N)Nc1ccc2c(c1)CCCOc1c(cccc1C(=O)NCC(=O)N[C@@H](CC(=O)O)C(=O)O)OC2=O [Example 100, N-((10-carbamimidamido-13-oxo-6,7,8,13-tetrahydro-dibenzo[b,f] [1,4]dioxecin-4-yl)carbonyl)glycyl-L-aspartic acid]

From patent US9975903B2, “Condensed heterocyclic compound” (Takeda Pharmaceutical Company Limited, priority 2014, dated 2018)
